Data as given in ChEMBL document CHEMBL5584243, “Discovery of JNJ-74856665: A Novel Isoquinolinone DHODH Inhibitor for the Treatment of AML” (J Med Chem, 2024).
Converted amounts (≈) assume the structure as drawn.

Assays:
[1] = Metabolic stability in human liver microsomes assessed as half life incubated upto 60 mins in presence of NADPH by LC-MS/MS analysis; type: ADME, Microsome
[2] = Volume of distribution at steady state in C57BL mouse at 2 mg/kg,iv measured upto 24 hrs by LC-MS/MS analysis; type: ADME, organism-based; settings: in vivo, read-out: Vdss
[3] = target: T1, AhR (aryl hydrocarbon receptor) (Homo sapiens, UniProt P35869); test: Activation of AhR (unknown origin) assessed as fold change at 1 to 10 uM relative to control; settings: dose 1-10 µM, read-out: FC
T1 sequence (P35869 whole entry): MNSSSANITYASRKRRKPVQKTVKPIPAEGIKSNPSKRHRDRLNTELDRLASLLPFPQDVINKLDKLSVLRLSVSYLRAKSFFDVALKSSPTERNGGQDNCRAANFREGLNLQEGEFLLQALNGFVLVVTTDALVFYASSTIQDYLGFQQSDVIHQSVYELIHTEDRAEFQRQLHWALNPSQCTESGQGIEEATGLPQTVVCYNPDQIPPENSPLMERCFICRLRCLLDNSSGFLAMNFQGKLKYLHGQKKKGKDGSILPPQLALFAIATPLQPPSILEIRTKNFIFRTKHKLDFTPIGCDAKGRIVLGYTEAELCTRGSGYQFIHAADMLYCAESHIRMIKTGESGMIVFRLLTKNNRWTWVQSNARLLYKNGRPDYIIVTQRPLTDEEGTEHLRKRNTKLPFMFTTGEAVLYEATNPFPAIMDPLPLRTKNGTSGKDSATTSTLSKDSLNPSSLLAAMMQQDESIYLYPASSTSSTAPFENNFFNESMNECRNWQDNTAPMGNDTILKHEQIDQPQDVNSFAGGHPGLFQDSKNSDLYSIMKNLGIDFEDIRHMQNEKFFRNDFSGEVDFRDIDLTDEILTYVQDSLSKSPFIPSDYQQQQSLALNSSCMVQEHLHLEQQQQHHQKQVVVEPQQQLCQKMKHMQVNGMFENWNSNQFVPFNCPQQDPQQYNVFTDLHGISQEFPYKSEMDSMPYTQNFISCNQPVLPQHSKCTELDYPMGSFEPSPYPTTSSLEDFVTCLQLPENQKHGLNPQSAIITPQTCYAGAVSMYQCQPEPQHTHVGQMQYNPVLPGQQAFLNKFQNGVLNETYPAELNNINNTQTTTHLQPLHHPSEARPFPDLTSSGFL

[4] = Passive permeability across apical to basolateral side in dog MDCK-MDR1 cells; type: ADME, cell-based, Canis lupus familiaris
[5] = Metabolic stability in dog liver microsomes assessed as half life incubated upto 60 mins in presence of NADPH by LC-MS/MS analysis; type: ADME, Canis lupus familiaris, Microsome
[6] = Metabolic stability in mouse liver microsomes assessed as half life incubated upto 60 mins in presence of NADPH by LC-MS/MS analysis; type: ADME, Microsome
[7] = Plasma protein binding in C57BL mouse at 1 uM incubated for 6.5 hrs by LC-MS/MS analysis; type: ADME, cell-free; settings: read-out: PPB (converted)
[8] = Toxicity in NSG mouse xenografted with human MOLM-13 cells assessed as change in body weight at 0.031 to 0.25 mg/kg,po administrated daily for 10 days relative to control; type: organism-based; settings: in vivo, 240 h, dose 0.031-0.25 mg/kg, time 10 day
[9] = Volume of distribution at steady state in cynomolgus monkey at 1 mg/kg,iv; type: ADME, organism-based, Macaca fascicularis; settings: in vivo, read-out: Vdss
[10] = Half life in dog hepatocyte; type: ADME, cell-based, Canis lupus familiaris; settings: hepatocytes
[11] = Tmax in C57BL mouse at […] measured upto 24 hrs by LC-MS/MS analysis; type: ADME, organism-based; settings: in vivo
PXR (NR1I2) [12] = target: T2, PXR (NR1I2) (Homo sapiens, UniProt O75469); test: Activation of PXR (unknown origin) assessed as fold change at 1 uM relative to control; type: ADME; settings: read-out: FC
T2 sequence (O75469 whole entry): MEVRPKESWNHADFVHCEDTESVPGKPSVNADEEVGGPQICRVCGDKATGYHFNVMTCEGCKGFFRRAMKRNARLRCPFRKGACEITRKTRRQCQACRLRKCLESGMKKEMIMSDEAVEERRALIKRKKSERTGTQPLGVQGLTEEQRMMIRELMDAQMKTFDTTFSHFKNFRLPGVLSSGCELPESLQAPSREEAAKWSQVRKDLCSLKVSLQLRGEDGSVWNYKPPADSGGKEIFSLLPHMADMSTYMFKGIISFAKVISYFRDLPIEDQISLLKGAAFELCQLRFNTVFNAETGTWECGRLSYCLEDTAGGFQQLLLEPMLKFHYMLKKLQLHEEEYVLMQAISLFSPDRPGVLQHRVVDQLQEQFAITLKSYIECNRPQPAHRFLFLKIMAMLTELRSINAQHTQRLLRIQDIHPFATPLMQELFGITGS

[13] = Equilibrium solubility of compound in PBS at pH 2 incubated for 2 to 5 days by HPLC analysis; type: physicochemical; settings: PBS, time 2-5 day
[14] = target: Dihydroorotate dehydrogenase (quinone), mitochondrial (Homo sapiens, UniProt Q02127); test: Binding affinity to recombinant human DHODH assessed as half life
Chain of Dihydroorotate dehydrogenase (quinone), mitochondrial (Q02127 whole entry): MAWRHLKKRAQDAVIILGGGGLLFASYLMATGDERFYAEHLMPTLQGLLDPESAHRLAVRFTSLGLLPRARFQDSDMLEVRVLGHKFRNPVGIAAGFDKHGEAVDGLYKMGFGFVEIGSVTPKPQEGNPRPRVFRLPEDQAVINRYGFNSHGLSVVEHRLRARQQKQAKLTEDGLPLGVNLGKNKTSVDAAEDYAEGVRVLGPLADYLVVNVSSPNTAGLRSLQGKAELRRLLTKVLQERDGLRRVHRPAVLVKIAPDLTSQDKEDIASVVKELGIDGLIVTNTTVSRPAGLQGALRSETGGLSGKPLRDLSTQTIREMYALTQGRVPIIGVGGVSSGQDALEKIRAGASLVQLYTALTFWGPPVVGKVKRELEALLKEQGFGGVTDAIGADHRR

[15] = Tmax in cynomolgus monkey at 10 mg/kg,po; type: ADME, organism-based, Macaca fascicularis; settings: in vivo
[16] = Half life in rat hepatocyte; type: ADME, cell-based; settings: hepatocytes
[17] = target: Serine/threonine-protein kinase WNK2 (Homo sapiens) (UniProt Q9Y3S1); test: Inhibition of WNK2 (unknown origin) at 1 uM relative to control
Chain of Serine/threonine-protein kinase WNK2 (Homo sapiens) (Q9Y3S1 whole entry): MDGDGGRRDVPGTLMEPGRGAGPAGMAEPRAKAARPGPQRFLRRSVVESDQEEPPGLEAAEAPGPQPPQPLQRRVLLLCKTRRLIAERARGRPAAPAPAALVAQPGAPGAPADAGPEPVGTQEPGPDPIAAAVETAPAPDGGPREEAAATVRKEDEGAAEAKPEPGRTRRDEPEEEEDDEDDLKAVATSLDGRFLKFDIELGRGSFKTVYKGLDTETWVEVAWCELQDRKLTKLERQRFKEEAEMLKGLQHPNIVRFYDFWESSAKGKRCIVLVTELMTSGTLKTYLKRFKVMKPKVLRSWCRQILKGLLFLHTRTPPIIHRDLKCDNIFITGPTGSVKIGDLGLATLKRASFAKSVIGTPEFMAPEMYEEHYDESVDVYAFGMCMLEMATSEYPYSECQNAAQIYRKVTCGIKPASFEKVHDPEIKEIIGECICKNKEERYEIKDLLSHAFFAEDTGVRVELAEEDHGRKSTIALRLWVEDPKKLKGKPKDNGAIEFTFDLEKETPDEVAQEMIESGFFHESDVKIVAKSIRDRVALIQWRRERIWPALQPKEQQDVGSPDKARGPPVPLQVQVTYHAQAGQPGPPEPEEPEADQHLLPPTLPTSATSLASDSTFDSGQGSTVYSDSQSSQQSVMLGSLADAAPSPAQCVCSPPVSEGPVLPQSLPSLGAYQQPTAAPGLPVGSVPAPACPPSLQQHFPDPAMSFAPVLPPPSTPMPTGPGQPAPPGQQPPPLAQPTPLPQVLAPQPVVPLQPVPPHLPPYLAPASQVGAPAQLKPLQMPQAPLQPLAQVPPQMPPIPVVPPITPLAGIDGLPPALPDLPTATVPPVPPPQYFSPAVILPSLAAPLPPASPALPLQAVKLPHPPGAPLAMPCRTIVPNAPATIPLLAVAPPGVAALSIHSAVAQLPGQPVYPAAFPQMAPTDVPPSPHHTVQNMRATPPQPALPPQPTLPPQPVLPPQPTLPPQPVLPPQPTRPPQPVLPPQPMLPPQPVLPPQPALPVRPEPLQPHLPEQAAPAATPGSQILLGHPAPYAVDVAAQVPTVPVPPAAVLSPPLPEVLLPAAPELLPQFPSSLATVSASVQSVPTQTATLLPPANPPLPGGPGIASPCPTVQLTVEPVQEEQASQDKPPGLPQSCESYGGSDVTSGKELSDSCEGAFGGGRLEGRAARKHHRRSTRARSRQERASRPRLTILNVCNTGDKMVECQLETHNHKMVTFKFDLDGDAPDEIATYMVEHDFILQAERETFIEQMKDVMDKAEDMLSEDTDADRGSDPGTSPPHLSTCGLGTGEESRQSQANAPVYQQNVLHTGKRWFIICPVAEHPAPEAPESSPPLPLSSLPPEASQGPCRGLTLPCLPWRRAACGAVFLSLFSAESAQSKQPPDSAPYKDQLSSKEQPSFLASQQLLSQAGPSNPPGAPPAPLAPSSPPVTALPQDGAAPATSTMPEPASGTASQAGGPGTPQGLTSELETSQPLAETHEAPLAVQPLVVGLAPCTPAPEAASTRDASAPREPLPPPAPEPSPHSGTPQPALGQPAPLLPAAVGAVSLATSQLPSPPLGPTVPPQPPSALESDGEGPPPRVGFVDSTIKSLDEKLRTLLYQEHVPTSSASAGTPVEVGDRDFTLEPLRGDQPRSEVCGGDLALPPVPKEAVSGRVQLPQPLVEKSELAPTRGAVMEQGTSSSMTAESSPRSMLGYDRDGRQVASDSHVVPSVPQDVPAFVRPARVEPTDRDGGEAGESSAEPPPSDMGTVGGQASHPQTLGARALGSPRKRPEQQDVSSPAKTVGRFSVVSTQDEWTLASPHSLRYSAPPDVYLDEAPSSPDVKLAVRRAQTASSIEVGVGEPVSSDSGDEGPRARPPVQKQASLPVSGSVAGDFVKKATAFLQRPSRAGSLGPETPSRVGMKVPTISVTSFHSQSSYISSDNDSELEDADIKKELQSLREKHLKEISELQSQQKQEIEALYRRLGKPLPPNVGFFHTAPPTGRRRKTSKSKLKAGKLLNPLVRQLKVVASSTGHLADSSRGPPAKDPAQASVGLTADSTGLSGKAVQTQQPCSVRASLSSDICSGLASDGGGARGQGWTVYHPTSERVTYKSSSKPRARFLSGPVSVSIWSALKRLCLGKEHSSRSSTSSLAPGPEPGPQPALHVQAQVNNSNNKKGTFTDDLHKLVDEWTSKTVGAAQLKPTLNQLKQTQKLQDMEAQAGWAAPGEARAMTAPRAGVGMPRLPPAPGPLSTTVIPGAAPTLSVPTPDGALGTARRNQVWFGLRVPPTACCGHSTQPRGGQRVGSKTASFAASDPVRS

[18] = Half life in human hepatocyte; type: ADME, cell-based; settings: hepatocytes
[19] = Half life in cynomolgus monkey at 1 mg/kg,iv; type: ADME, organism-based, Macaca fascicularis; settings: in vivo
[20] = Equilibrium solubility of compound in FaSSIF at pH 6.5 using crystalline form incubated for 2 to 5 days by HPLC analysis; type: ADME; settings: time 2-5 day
[21] = Plasma protein binding in human at 1 uM incubated for 6.5 hrs by LC-MS/MS analysis; type: ADME, cell-free; settings: read-out: PPB (converted)
[22] = AUC (0 to infinity) in C57BL mouse at 2 mg/kg,iv measured upto 24 hrs by LC-MS/MS analysis; type: ADME, organism-based; settings: in vivo
[23] = target: T3, Aryl hydrocarbon receptor (Homo sapiens, UniProt P35869); test: Activation of AhR (unknown origin) at 1 to 10 uM; settings: dose 1-10 µM
T3 sequence (P35869 whole entry): T1 sequence (P35869 whole entry)

MOLM-13 [24] = test: Antiproliferative activity against human MOLM-13 cells assessed as inhibition of cell growth incubated for 72 hrs by CellTiter-Glo assay; type: functional, cell-based; settings: MOLM-13, 72 h
[25] = Inhibition of Calcium ion channel (unknown origin); set-up: species or system Homo sapiens
PXR (NR1I2) [26] = target: T2, PXR (NR1I2); test: Activation of PXR (unknown origin) assessed as fold change at 10 uM relative to control; type: ADME; settings: read-out: FC
[27] = Half life in monkey hepatocyte; type: ADME, cell-based, Macaca mulatta; settings: rhesus monkey, hepatocytes
[28] = Clearance in cynomolgus monkey at 1 mg/kg,iv; type: ADME, organism-based, Macaca fascicularis; settings: in vivo
[29] = Lipophilicity, logD of compound; type: physicochemical; settings: octanol/water
[30] = Cmax in cynomolgus monkey at 10 mg/kg,po; type: ADME, organism-based, Macaca fascicularis; settings: in vivo
MOLM-13 [31] = test: Antitumor activity against human MOLM-13 cells xenografted in NSG mouse assessed as tumor growth inhibition at 0.25 mg/kg,po administrated daily for 10 days relative to control; type: functional; settings: MOLM-13, 240 h, time 10 day, read-out: TGI

half-life [1]: > 3 h
Vd [2]: 1.6 L/kg
fold induction [3]: < 2
Papp A→B [4]: 33.1 ×10⁻⁶ cm/s
half-life [5]: 0.958 h
half-life [6]: > 3 h
fraction unbound at 6.5 h, 1 µM [7]: 0.088
Vd [9]: 1.2 L/kg
half-life [10]: 0.242 h
Tmax [11]: 1.7 h
fold induction at 1 µM (PXR (NR1I2) [12]): 3.2
solubility thermodynamic [13]: 325 µM (≈ 142 µg/mL)
T1/2 [14]: 0.328 h
Tmax [15]: 3.3 h
half-life [16]: > 6.18 h
inhibition [17]: 51%
half-life [18]: > 6.18 h
half-life [19]: 6.4 h
solubility thermodynamic [20]: 67 µg/mL (≈ 153 µM)
fraction unbound at 6.5 h, 1 µM [21]: 0.099
AUC [22]: 57200 ng·h/mL
Activity [23]: Not Active
IC50 (MOLM-13 [24]): 0.19 nM
IC50 [25]: > 10000 nM
fold induction at 10 µM (PXR (NR1I2) [26]): 7.4
half-life [27]: > 6.18 h
clearance [28]: 2.4 mL/min/kg
logD [29]: 2.7
Cmax [30]: 5800 ng/mL
Compound: CCn1c(CO)nn(-c2cc3c(C(C)C)cn(-c4ccccc4C)c(=O)c3cc2F)c1=O
Activity [8]: Toxic
inhibition in vivo at 0.25 mg/kg (MOLM-13 [31]): 93%
